Source: ChEMBL document CHEMBL1126649, “Development of a pharmacophore for inhibition of human liver cytochrome P-450 2D6: molecular modeling and inhibition studies” (J Med Chem, 1993)

Experiments:
Cytochrome P450 2D6 [1] = molecular target: T1, Cytochrome P450 2D6 (Homo sapiens, UniProt P10635); test: Inhibitory effect on Bufuralol 1'-hydroxylation by human liver microsomes (Ki = apparent inhibition constant); assay type: ADME, Microsome
Cytochrome P450 2D6 [2] = molecular target: T1, Cytochrome P450 2D6
Cytochrome P450 2D6 [3] = molecular target: T1, Cytochrome P450 2D6; remark: listed apart in the source
Cytochrome P450 2D6 [4] = molecular target: T1, Cytochrome P450 2D6; remark: listed apart in the source
Cytochrome P450 2D6 [5] = molecular target: T1, Cytochrome P450 2D6; test: Apparent inhibitory constant (Ki) for Bufuralol 1'-hydroxylation by human liver microsomes; assay type: ADME, Microsome
Cytochrome P450 2D6 [6] = molecular target: T1, Cytochrome P450 2D6; remark: listed apart in the source
Cytochrome P450 2D6 [7] = molecular target: T1, Cytochrome P450 2D6; test: Inhibition of partially purified cytochrome P450 2D6 1'-hydroxybufuralol formation
Cytochrome P450 2D6 [8] = molecular target: T1, Cytochrome P450 2D6; remark: listed apart in the source
Cytochrome P450 2D6 [9] = molecular target: T1, Cytochrome P450 2D6; test: Inhibitory constant for cytochrome P450 2D6; assay type: ADME
Cytochrome P450 2D6 [10] = molecular target: T1, Cytochrome P450 2D6; remark: listed apart in the source

T1 sequence (P10635 whole entry): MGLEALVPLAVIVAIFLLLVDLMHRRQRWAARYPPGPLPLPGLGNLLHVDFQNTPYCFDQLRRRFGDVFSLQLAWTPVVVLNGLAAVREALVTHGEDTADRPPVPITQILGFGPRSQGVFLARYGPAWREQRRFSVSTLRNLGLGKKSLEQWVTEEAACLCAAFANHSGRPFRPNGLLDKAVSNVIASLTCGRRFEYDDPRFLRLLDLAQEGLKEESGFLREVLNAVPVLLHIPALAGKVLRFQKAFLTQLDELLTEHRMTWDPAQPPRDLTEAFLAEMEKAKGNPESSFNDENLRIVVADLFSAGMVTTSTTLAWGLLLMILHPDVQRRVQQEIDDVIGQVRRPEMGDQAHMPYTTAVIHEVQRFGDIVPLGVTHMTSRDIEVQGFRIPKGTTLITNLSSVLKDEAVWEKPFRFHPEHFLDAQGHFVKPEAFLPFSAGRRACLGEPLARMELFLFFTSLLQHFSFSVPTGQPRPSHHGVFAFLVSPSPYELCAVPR

Compound `C=CC1C[N+]2(c3ccccc3)CCC1CC2C(O)c1ccnc2ccc(OC)cc12` (centres undefined) has a Ki (Cytochrome P450 2D6 [1]) of 25 µM.
`COc1ccc2[nH]cc(CCO)c2c1` gave a Ki (Cytochrome P450 2D6 [1]) of 100 µM.
With `COc1ccc2ncccc2c1` the Ki (Cytochrome P450 2D6 [1]) was over 1000 µM.
`CC1OC=C(CO)[C@H]2C[C@H]3c4[nH]c5ccccc5c4CCN3CC12` (some centres undefined) gave a Ki (Cytochrome P450 2D6 [1]) of 1.1 µM.
`C=CC1CN2CCC1CC2C(=O)c1ccnc2ccc(OC)cc12` (centres undefined) showed a Ki (Cytochrome P450 2D6 [1]) of 0.72 µM.
For `C=CC1CN2CCC1C[C@H]2[C@H](O)c1ccnc2ccc(Cl)cc12` (some centres undefined), the Ki (Cytochrome P450 2D6 [1]) was 3.5 µM.
`COC(=O)C1=CO[C@H](C)[C@H]2CN3CCc4c([nH]c5ccccc45)[C@@H]3C[C@H]12` showed a Ki (Cytochrome P450 2D6 [1]) of 0.017 µM.
Work on `CCC1CN2CCC1CC2[C@H](O)c1ccnc2ccccc12` (some centres undefined) yielded a Ki (Cytochrome P450 2D6 [2]) of 9.6 µM, a Ki (Cytochrome P450 2D6 [3]) of 8 µM and a Ki (Cytochrome P450 2D6 [4]) of 24 µM.
Compound `C=CC1CN2CCC1C[C@@H]2[C@@H](O)c1ccnc2ccc(Cl)cc12` (some centres undefined) has a Ki (Cytochrome P450 2D6 [1]) of 0.52 µM.
`COC(=O)C1=CNC(C)C2CN3CCc4c([nH]c5ccccc45)[C@@H]3C[C@H]12` (some centres undefined) showed a Ki (Cytochrome P450 2D6 [1]) of 2.9 µM.
In the case of `O=C(O)[C@H]1[C@H]2C[C@H]3c4[nH]c5ccccc5c4CCN3C[C@@H]2CC[C@H]1O`, the Ki (Cytochrome P450 2D6 [1]) is reported as 6.3 µM.
Work on `COC(=O)C1=CO[C@@H](C)[C@H]2C[n+]3ccc4c([nH]c5ccccc54)c3C[C@H]12` yielded a Ki (Cytochrome P450 2D6 [1]) of 2.2 µM.
Work on `CCC1CN2CCC1CC2C(O)c1ccnc2ccccc12` (centres undefined) yielded a Ki (Cytochrome P450 2D6 [2]) of 2.8 µM, a Ki (Cytochrome P450 2D6 [3]) of 1.6 µM and a Ki (Cytochrome P450 2D6 [4]) of 3.2 µM.
`C=CC1CN2CCC1C[C@@H]2[C@@H](O)c1ccnc2ccccc12` (stereo in doubt; 9b) gave a Ki (Cytochrome P450 2D6 [2]) of 3.5 µM, a Ki (Cytochrome P450 2D6 [3]) of 3.5 µM and a Ki (Cytochrome P450 2D6 [4]) of 5.4 µM. It also gave a Ki (Cytochrome P450 2D6 [5]) of 3.5 µM, a Ki (Cytochrome P450 2D6 [6]) of 1 µM and a Ki (Cytochrome P450 2D6 [7]) of 2.6 µM.
Work on `C=CC1CN2CCC1C[C@@H]2[C@@H](O)c1ccnc2ccccc12` (stereo in doubt; 10b) yielded a Ki (Cytochrome P450 2D6 [2]) of 7.3 µM, a Ki (Cytochrome P450 2D6 [3]) of 7.5 µM and a Ki (Cytochrome P450 2D6 [4]) of 16 µM. For the same compound, the Ki (Cytochrome P450 2D6 [8]) was 9.3 µM, the Ki (Cytochrome P450 2D6 [1]) was 7.5 µM and the Ki (Cytochrome P450 2D6 [7]) was 25 µM.
Work on `COC(=O)C1=CO[C@@H](C)[C@H]2C=[N+]3CCc4c([nH]c5ccccc45)[C@@H]3C[C@H]12` [CATHENAMINE] yielded a Ki (Cytochrome P450 2D6 [1]) of 3.2 µM.
`CCC1CN2CCC1CC2[C@@H](O)c1ccnc2ccc(OC)cc12` (some centres undefined) [DIHYDROQUINIDINE] gave a Ki (Cytochrome P450 2D6 [1]) of 0.066 µM.
With `Cc1nccc2c1[nH]c1ccccc12` [HARMAN] the Ki (Cytochrome P450 2D6 [1]) was 86 µM.
`CC[C@H]1CN2CC[C@H]1C[C@H]2[C@H](O)c1ccnc2ccc(OC)cc12` [HYDROQUININE] showed a Ki (Cytochrome P450 2D6 [1]) of 4 µM.
In the case of `CN1[C@@H](CC(=O)c2ccccc2)CCC[C@H]1C[C@H](O)c1ccccc1` [LOBELINE], the Ki (Cytochrome P450 2D6 [9]) is reported as 0.12 µM.
With `CC(C)N1CCC(c2ccccc2)(c2ccccc2)CC1` [PRODIPINE] the Ki (Cytochrome P450 2D6 [9]) was 0.0048 µM.
`c1ccc2c(c1)[n-]c1c3[n+](ccc12)CC1CCCCC1C3` (centres undefined) [SEMPERVIRINE] was tested, and the Ki (Cytochrome P450 2D6 [1]) was 9.7 µM.
For `COC(=O)C1=CO[C@@H](C)[C@@H]2CN3CCc4c([nH]c5ccccc45)[C@@H]3C[C@H]12` [TETRAHYDROALSTONINE], the Ki (Cytochrome P450 2D6 [1]) was 1.1 µM.
With RAUWOLFIA SERPENTINA the Ki (Cytochrome P450 2D6 [10]) was 0.0046 µM and the Ki (Cytochrome P450 2D6 [5]) was 0.0046 µM.
